In brackets after ≈: the same amount, converted by molar mass. Counter-ions that a name gives are not always drawn. Like-named read-outs stand apart in the source and are kept apart here.
How the values were obtained:
[1] = system: Enterococcus faecalis HPC 984; assay: Antibacterial spectrum, MIC by twofold agar dilution method; format: cell-based; conditions: HPC984, 10^6 cfu/ml, clinically isolated strain, Gram +, 18 hrs at 37° C
Method: (§1) Overnight cultures in Mueller-Hinton broth were suspended by buffered saline gelatin. One loopful of the bacterial suspension (10^6 or 10^8 colony-forming units/ml) was incubated onto the plates containing test compounds. The plates were incubated for 18 hrs at 37° C. The MIC was defined by the lowest concentration of the drug that inhibited visible growth of bacteria.

[2] = system: Enterobacter cloacae HNR 1946; assay: as above; format: cell-based; conditions: HNR1946, 10^6 cfu/ml, clinically isolated strain, Gram -, 18 hrs at 37° C
Method: as §1

[3] = system: Enterococcus faecalis HPC 948; assay: as above; format: cell-based; conditions: HPC948, 10^6 cfu/ml, clinically isolated strain, Gram +, 18 hrs at 37° C
Method: as §1

[4] = system: Acinetobacter calcoaceticus HNR 939; assay: as above; format: cell-based; conditions: HNR939, 10^6 cfu/ml, clinically isolated strain, Gram -, 18 hrs at 37° C
Method: as §1

[5] = system: Staphylococcuss aureus HPC 527; assay: as above; format: cell-based; conditions: 10^6 cfu/ml; clinically isolated strain, Gram +; 18 hrs at 37° C
Method: as §1

[6] = system: Klebsiella pneumoniae HNR 869; assay: as above; format: cell-based; conditions: HNR869, 10^6 cfu/ml, clinically isolated strain, Gram -, 18 hrs at 37° C
Method: as §1

[7] = system: Serratia marcescens HNR 1544; assay: as above; format: cell-based; conditions: HNR1544, 10^6 cfu/ml, clinically isolated strain, Gram -, 18 hrs at 37° C
Method: as §1

[8] = system: Pseudomonas aeruginosa HNR 1472; assay: as above; format: cell-based; conditions: HNR1472, 10^6 cfu/ml, clinically isolated strain, Gram -, 18 hrs at 37° C
Method: as §1

[9] = system: Pseudomonas aeruginosa HNR 1537; assay: as above; format: cell-based; conditions: HNR1537, 10^6 cfu/ml, clinically isolated strain, Gram -, 18 hrs at 37° C
Method: as §1

[10] = system: Klebsiella pneumoniae HNR 828; assay: as above; format: cell-based; conditions: HNR828, 10^6 cfu/ml, clinically isolated strain, Gram -, 18 hrs at 37° C
Method: as §1

[11] = system: Enterococcus faecalis HPC 975; assay: as above; format: cell-based; conditions: HPC975, 10^6 cfu/ml, clinically isolated strain, Gram +, 18 hrs at 37° C
Method: as §1

[12] = system: Pseudomonas aeruginosa HNR 1489; assay: as above; format: cell-based; conditions: HNR1489, 10^6 cfu/ml, clinically isolated strain, Gram -, 18 hrs at 37° C
Method: as §1

[13] = system: Staphylococcuss aureus HPC 292; assay: as above; format: cell-based
Method: as §1

[14] = system: Enterobacter cloacae HNR 1939; assay: as above; format: cell-based; conditions: HNR1939, 10^6 cfu/ml, clinically isolated strain, Gram -, 18 hrs at 37° C
Method: as §1

[15] = system: Serratia marcescens IAM 1184; assay: as above; format: cell-based; conditions: IAM1184, 10^6 cfu/ml, standard laboratory strain, Gram -, 18 hrs at 37° C
Method: as §1

[16] = system: Enterobacter cloacae 963; assay: as above; format: cell-based; conditions: 10^6 cfu/ml, standard laboratory strain, Gram -, 18 hrs at 37° C
Method: as §1

[17] = system: Acinetobacter calcoaceticus HNR 916; assay: as above; format: cell-based; conditions: HNR916, 10^6 cfu/ml, clinically isolated strain, Gram -, 18 hrs at 37° C
Method: as §1

[18] = system: Acinetobacter calcoaceticus HNR 904; assay: as above; format: cell-based; conditions: HNR904, 10^6 cfu/ml, clinically isolated strain, Gram -, 18 hrs at 37° C
Method: as §1

[19] = system: Staphylococuss aureus FDA 209PJC-1; assay: as above; format: cell-based; conditions: 10^6 cfu/ml; standard laboratory strain, Gram +; 18 hrs at 37° C
Method: as §1

[20] = system: Serratia marcescens HNR 1792; assay: as above; format: cell-based; conditions: HNR1792, 10^6 cfu/ml, clinically isolated strain, Gram -, 18 hrs at 37° C
Method: as §1

[21] = system: Pseudomonas aeruginosa IFO 3445; assay: as above; format: cell-based; conditions: IFO3445, 10^6 cfu/ml, standard laboratory strain, Gram -, 18 hrs at 37° C
Method: as §1

[22] = system: Escherichia coli NIHJ JC-2; assay: as above; format: cell-based; conditions: NIHJJC2, 10^6 cfu/ml, standard laboratory strain, Gram -, 18 hrs at 37° C
Method: as §1

[23] = system: Serratia marcescens HNR 1767; assay: as above; format: cell-based; conditions: HNR1767, 10^6 cfu/ml, clinically isolated strain, Gram -, 18 hrs at 37° C
Method: as §1

[24] = system: Klebsiella pneumoniae HNR 858; assay: as above; format: cell-based; conditions: HNR858, 10^6 cfu/ml, clinically isolated strain, Gram -, 18 hrs at 37° C
Method: as §1

[25] = system: Male mice of ddY strain; assay: Acute toxicity (i.v.); format: in vivo; conditions: 270 mg/kg (i.v.)
Method: Male mice of ddY strain, 4 weeks old, were used. Test compounds were solved in 0.1N--NaOH solution and neutralized with 0.1N--HCl solution. Each compound was administered intravenously (i.v.) at a dose of 270 mg/kg. […]

[26] = system: Male mice of ddY strain; assay: Convulsion inducing activity in combination with fenbufen; conditions: 30 min after fenbufen 100 mg/kg orally
Method: Male mice of ddY strain, 5 weeks old, were used. Fenbufen suspended in 0.5% carboxymethyl cellulose was administered orally at a dose of 100 mg/kg. After thirty minutes, test compounds suspended in 0.5% carboxymethyl cellulose were injected intraperitoneally (i.p.) at a dose of 100 mg/kg or 300 mg/kg.

[27] = system: Klebsiella pneumoniae PCI-602; assay: Antibacterial spectrum, MIC by twofold agar dilution method; format: cell-based
Method: as §1, with “Minimum inhibitory concentrations (MIC) of test compounds were determined by the twofold agar dilution method (Chemotherapy, 29(1), 76(1981)). Overnight” for “Overnight”

[28] = system: Enterobacter cloacae HNR 1941; assay: as above; format: cell-based; conditions: HNR1941, 10^6 cfu/ml, clinically isolated strain, Gram -, 18 hrs at 37° C
Method: as §1

[29] = system: Staphylococcuss aureus HPC 308; assay: as above; format: cell-based; conditions: 10^6 cfu/ml; clinically isolated strain, Gram +; 18 hrs at 37° C
Method: as §1

[30] = 10^6 cfu/ml, clinically isolated strain, Gram +, 18 hrs at 37° C, read-out: MIC
[31] = PCI602, 10^6 cfu/ml, standard laboratory strain, Gram -, 18 hrs at 37° C, read-out: MIC

Compound	MIC [1] [µg/mL]	MIC [2] [µg/mL]	MIC [3] [µg/mL]	MIC [4] [µg/mL]	MIC [5] [µg/mL]	MIC [6] [µg/mL]	MIC [7] [µg/mL]	MIC [8] [µg/mL]	MIC [9] [µg/mL]	MIC [10] [µg/mL]	MIC [11] [µg/mL]	MIC [12] [µg/mL]	MIC [14] [µg/mL]	MIC [15] [µg/mL]	MIC [16] [µg/mL]	MIC [17] [µg/mL]	MIC [19] [µg/mL]	MIC [20] [µg/mL]	MIC [21] [µg/mL]	MIC [22] [µg/mL]	also measured
CC1Sc2c(C(=O)O)c(=O)c3cc(F)c(N4CC[C@H](N)C4)c(F)c3n21 (single isomer, unassigned) [Example 27]	0.2 (≈ 0.544 µM)	0.2 (≈ 0.544 µM)	0.78 (≈ 2.12 µM)	1.56 (≈ 4.25 µM)	0.05 (≈ 0.136 µM)	0.78 (≈ 2.12 µM)	0.05 (≈ 0.136 µM)	3.13 (≈ 8.52 µM)	6.25 (≈ 17 µM)	1.56 (≈ 4.25 µM)	6.25 (≈ 17 µM)	0.1 (≈ 0.272 µM)	0.2 (≈ 0.544 µM)	0.05 (≈ 0.136 µM)	0.05 (≈ 0.136 µM)	0.1 (≈ 0.272 µM)	0.025 (≈ 0.068 µM)	1.56 (≈ 4.25 µM)	0.1 (≈ 0.272 µM)	0.025 (≈ 0.068 µM)	MIC [13, 30]: 6.25 µg/mL (≈ 17 µM); MIC [18]: 25 µg/mL (≈ 68 µM); MIC [23]: 6.25 µg/mL (≈ 17 µM); MIC [24]: 0.2 µg/mL (≈ 0.544 µM); Number of death/Number of animals [25]: 4/10; Number of convulsion induced/Number of animals ([26]; 100 mg/kg (i.p.)): 0/6; Number of convulsion induced/Number of animals ([26]; 300 mg/kg (i.p.)): 0/6; MIC [27, 31]: ≤ 0.003 µg/mL
CC1Sc2c(C(=O)O)c(=O)c3cc(F)c(N4CC[C@H](N)C4)c(Cl)c3n21 (single isomer, unassigned) [Example 29]	0.2 (≈ 0.521 µM)	0.2 (≈ 0.521 µM)	0.78 (≈ 2.03 µM)	1.56 (≈ 4.06 µM)	0.05 (≈ 0.13 µM)	0.39 (≈ 1.02 µM)	0.05 (≈ 0.13 µM)	3.13 (≈ 8.15 µM)	3.13 (≈ 8.15 µM)	1.56 (≈ 4.06 µM)	6.25 (≈ 16.3 µM)	0.2 (≈ 0.521 µM)	0.2 (≈ 0.521 µM)	0.1 (≈ 0.261 µM)	0.025 (≈ 0.0651 µM)	0.1 (≈ 0.261 µM)	0.05 (≈ 0.13 µM)	0.78 (≈ 2.03 µM)	0.1 (≈ 0.261 µM)	0.025 (≈ 0.0651 µM)	MIC [28]: 1.56 µg/mL (≈ 4.06 µM); MIC [29]: 0.78 µg/mL (≈ 2.03 µM); MIC [13, 30]: 6.25 µg/mL (≈ 16.3 µM); MIC [23]: 3.13 µg/mL (≈ 8.15 µM); MIC [24]: 0.2 µg/mL (≈ 0.521 µM); Number of death/Number of animals [25]: 3/10; Number of convulsion induced/Number of animals ([26]; 100 mg/kg (i.p.)): 0/6; Number of convulsion induced/Number of animals ([26]; 300 mg/kg (i.p.)): 0/6
CC1Sc2c(C(=O)O)c(=O)c3cc(F)c(N4CC[C@H](N(C)C)C4)c(F)c3n21 (stereo partly drawn) [Example 37, 7-((S)-3-Dimethylamino-1-pyrrolidinyl)-6,8-difluoro-1-methyl-4-oxo-1H,4H-[1,3]thiazeto[3,2-a]quinoline-3-carboxylic acid]	0.78 (≈ 1.97 µM)	1.56 (≈ 3.95 µM)	3.13 (≈ 7.92 µM)	1.56 (≈ 3.95 µM)	0.2 (≈ 0.506 µM)	3.13 (≈ 7.92 µM)	0.2 (≈ 0.506 µM)	50 (≈ 126 µM)	100 (≈ 253 µM)	12.5 (≈ 31.6 µM)	12.5 (≈ 31.6 µM)	0.78 (≈ 1.97 µM)	0.78 (≈ 1.97 µM)	0.39 (≈ 0.986 µM)	0.2 (≈ 0.506 µM)	0.2 (≈ 0.506 µM)	0.2 (≈ 0.506 µM)	12.5 (≈ 31.6 µM)	0.78 (≈ 1.97 µM)	0.1 (≈ 0.253 µM)	MIC [28]: 25 µg/mL (≈ 63.2 µM); MIC [29]: 3.13 µg/mL (≈ 7.92 µM); MIC ([13]; 18 h): 6.25 µg/mL (≈ 15.8 µM); MIC [18]: 25 µg/mL (≈ 63.2 µM); MIC [23]: 25 µg/mL (≈ 63.2 µM); MIC [24]: 0.78 µg/mL (≈ 1.97 µM); MIC [27, 31]: 0.05 µg/mL (≈ 0.126 µM)
O=C(O)c1cn(C2CC2)c2cc(N3CCNCC3)c(F)cc2c1=O [Reference Drug A, ciprofloxacin hydrochloride, reference compound]	–	–	–	–	–	–	–	–	–	–	–	–	–	–	–	–	–	–	–	–	Number of death/Number of animals [25]: 7/10; Number of convulsion induced/Number of animals ([26]; 100 mg/kg (i.p.)): 4/6; Number of convulsion induced/Number of animals ([26]; 300 mg/kg (i.p.)): 6/6; MIC ([27]; PCI602, 18 h): 0.012 µg/mL

— patent publication US5126337A, “Thiazetoquinoline-3-carboxylic acid derivative and a pharmaceutical composition comprising the same” (priority 1989, dated 1992)
